Test results as given in patent US20070071773A1, “Compositions and methods for the treatment and prophylaxis of infections caused by gram positive bacteria” (priority 2002, published 2007).
Entries after “also recorded” stand apart in the source; their conditions may differ.

Key:
[1] = test system: GAS strain JS95; test: Histopathology of soft-tissue lesions: neutrophil (PMN) recruitment in mice challenged with JS95; format: in vivo, Group A Streptococcus (GAS); conditions: 10^8 CFU JS95 with 100 μg of 70% pure peptide, 24 h after inoculation, FIG. 11C, 11D
Protocol: Haematoxylin and eosin stain of the soft-tissue lesions from a mouse challenged with 10^8 CFU of JS95 24 h after inoculation (11A-11B) in the presence of 100 μg of 70% pure peptide (11C, 11D). After 24 hours, skin samples were stained with hematoxiline and eosine and examined by microscopy at 50 (11A, 11C) and 400 (11B, 11D) fold magnification. There is extensive necrosis of fascia, massive presence of bacteria but no infiltration of neutrophils. There were no differences in the histopathology findings as determined in two mice in 4 different experiments.
The ability of GAS to cause lethal infection in ten-gram BALB/c female mice (Harlan Laboratories, Jerusalem, Israel) was assessed as described before [Ravins, M. et al. J. Infect. Dis. 182:1702-11 (2000)]. Briefly, 10^8 CFU of log-phase bacteria were washed twice in PBS, resuspended in 0.1 ml PBS and injected subcutaneously into the back of a mouse. The number of CFU injected was verified for each experiment by plating bacteria on THY-blood agar plates and counting. Each group contained 8 to 10 mice that were observed daily for death and changes in the lesions' properties such as size and depth, or were sacrificed at different times after inoculation for histopathological assessment. […] Aliquots were plated and streptococcal colonies were counted. […]

[2] = Neutrophil influx in mice after injection of the peptide alone; format: in vivo; conditions: without bacteria
Text: This is in a sharp contrast to the paucity of neutrophil influx in mice challenged with JS95 alone (FIG. 11B). Thus, a rapid recruitment of neutrophils appears necessary to confine GAS infection, subsequently preventing a systemic GAS dissemination.

[3] = test system: trypsin-like GAS protease; test: Degradation of IL-8 by JS95 supernatant (Western blot, ELISA); format: biochemical, Group A Streptococcus (GAS); conditions: supernatant of JS95 grown without SilCR, 50 μg/ml SilCR added to the assay; FIG. 14
Protocol: […] was grown in the absence and presence of SilCR (50 μg/ml). IL-8 was incubated with the indicated supernatant fractions and then subjected to 18% SDS-PAGE. The separated protein bands were electro-transferred to a nitrocellulose membrane. Anti-IL-8 antibody and a secondary antibody conjugated to horseradish peroxidase were used to detect IL-8. The number of the lane represents incubation of IL-8 with: 1, DMEM+FCS (control); 2, JS95 supernatant; 3, JS95 supernatant grown in the presence of SilCR; 4, JS95 supernatant, pretreated with pefabloc SC; 5, supernatant of JS95 grown in the absence of SilCR, then 50 μg/ml of SilCR was added to the degradation assay.
15A The column numbers represent the ELISA results after incubation of IL-8 with: 1, DMEM+FCS (control); and the supernatants of: 2, JS95; 3, JS95 grown in the presence of SilCR; 4, JS95 pretreated with aprotenin; 5, JS95 pretreated with soybean trypsin inhibitor; 6, JS95 pretreated with benzamidine. The background of the ELISA assay (0.08±0.004) was subtracted from the shown results. The data represent the mean ± SD, of three separate experiments.
A. Cell culture of JS95 strain was grown in THY to an OD600 of 0.2. To determine the effect of SilCR on chemokine proteolysis, the culture was split into two equal fractions, of which one received SilCR (25 μg/ml). Both fractions were further incubated until they reached an OD600 of 0.3. Bacteria were washed twice with sterile PBS and once with DMEM containing 10% FCS. The washed pellets were re-suspended in DMEM supplemented with FCS to their original volumes. SilCR (50 μg/ml) was added to the fraction that was grown in the presence of SilCR, and the two fractions were further incubated for 1 h at 37° C. Supernatants were collected after centrifugation. The proteolysis reaction contained: 0.08 ml of each supernatant, 100 ng of recombinant human IL-8/CXCL8 (R&D systems, Minneapolis, Minn.) or 30 ng of recombinant murine MIP-2 (R& D systems, Minneapolis, Minn.), 20 mM MOPS pH=7.2 in a final volume of 0.1 ml. The reaction was conducted for 1 h at 37° C., and stopped by boiling for 1 min.
B. For testing protease inhibitors, the supernatants were pre-incubated with the inhibitor for 30 min at 37° C., followed by the proteolysis reaction. The following concentrations of inhibitors were used: 4 mM pefabloc SC; 0.5 mM PMSF; 0.3 μM aprotinin; 1 mM benzamidine; 100 μg/ml soybean trypsin inhibitor (STI).
C. Proteolysis of chemokines was determined by ELISA and Dot-blot. IL-8 content was quantified by ELISA using the Quantikine kit for determination of human IL-8 (R&D Systems, Minneapolis, Minn.) according to the manufacturer's instructions.

For “DIFKLVIDHISMKARKK (SilCR peptide) [17 amino acid synthetic peptide, predicted mature form of the pheromone peptide encoded by the SilCR ORF; used at 70% or 90% purity]”, the “recruitment of PMN / neutrophil infiltration at the site of infection” value [1] was “abundant neutrophil infiltration”, the “recruitment of PMN / neutrophil infiltration at the site of infection” value ([1]; listed as peptide) was “significant recruitment of PMN” and the neutrophil influx [2] was “did not stimulate neutrophil recruitment; also recorded: did not induce neutrophil influx”. The “IL-8 proteolysis with purified peptide added to the degradation assay” value [3] was “did not itself block IL-8 proteolysis”.
